Measured values as given in patent US20100094026A1, “METHOD OF SCREENING COMPOUND USEFUL IN TREATING ALLERGIC DISEASE” (REVERSE PROTEOMICS RESEARCH INSTITUTE CO., LTD., priority 2005, published 2010).
Structures can show the parent of a compound that is named as a salt.

Target: T1, Standard Human Vimentin (Homo sapiens, UniProt P08670)
T1 construct: purchased PROGEN Biotechnik 62015
Assay: Measurement of Kd value between Vimentin and Intal with Biacore (SPR)
Type: binding
Details: SPR on Biacore3000; Intal PEG amine immobilized on CM5 chip; Vimentin 0.29 nM to 4.6 μM infused for 5 min
Method: Intal PEG amine synthesized as above was immobilized to Biacore CM5 chip (#BR-1000-14), according to a method described in BIAapplications Handbook (published by Biacore).
Control data was obtained by using a chip to which 2-ethanolamine was immobilized by the same way.
As Vimentin, Standard Human Vimentin (cat. No. 62015) purchased from PROGEN Biotechnik was subjected to buffer exchange by Running buffer(0.25 M Sucrose, 25 mM Tris-HCl pH7.5, 0.3 mM sodium N,N-diethyldithiocarbamate, 25 mM urea, 1 mM calcium chloride) and used to measure Kd.
The measurement of Kd was performed by SPR (surface plasmon resonance) spectrum measurement on Biacore3000 (Biacore). The above-mentioned Running buffer was run through the Intal-immobilized CM5 chip prepared by the above-mentioned procedure at 20 μl per min. Thereto, each sample which was prepared by gradually diluting the Vimentin prepared by the above-mentioned procedure (0.29 nM to 4.6 μM) was infused for 5 min., and the obtained SPR spectrum was analyzed by BIAevaluation software Ver.

T1 sequence (P08670 whole entry): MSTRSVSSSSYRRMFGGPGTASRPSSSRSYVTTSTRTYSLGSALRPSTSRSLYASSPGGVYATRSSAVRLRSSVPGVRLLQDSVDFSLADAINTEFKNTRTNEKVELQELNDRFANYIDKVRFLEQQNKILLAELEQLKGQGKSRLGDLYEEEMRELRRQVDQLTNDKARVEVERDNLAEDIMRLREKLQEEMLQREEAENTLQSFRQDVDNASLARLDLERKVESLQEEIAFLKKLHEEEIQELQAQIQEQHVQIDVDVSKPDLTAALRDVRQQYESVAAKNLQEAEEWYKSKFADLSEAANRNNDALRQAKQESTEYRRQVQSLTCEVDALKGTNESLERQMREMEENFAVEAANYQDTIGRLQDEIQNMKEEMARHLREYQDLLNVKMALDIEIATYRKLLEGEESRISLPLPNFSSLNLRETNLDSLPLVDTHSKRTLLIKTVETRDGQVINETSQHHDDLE

Kd: 56 nM
SMILES: O=C(O)c1cc(=O)c2c(OCC(O)COc3cccc4oc(C(=O)O)cc(=O)c34)cccc2o1 [Intal, disodium salt of 1,3-bis(2-carboxychromon-5-yloxy)-2-hydroxypropane]
